Experimental data reported in article PMC6148290, “Endogenous metabolites of vitamin E limit inflammation by targeting 5-lipoxygenase” (Nature Communications, 2018).
Where two headings read alike, the source gives them in different places.

Columns and labels:
[1] = target: T1, human microsomal prostaglandin E2 synthase (mPGES)-1 (Homo sapiens, UniProt O14684); assay: mPGES-1 activity in microsomal preparations of IL-1β-treated A549 cells
T1 sequence (O14684 1-152): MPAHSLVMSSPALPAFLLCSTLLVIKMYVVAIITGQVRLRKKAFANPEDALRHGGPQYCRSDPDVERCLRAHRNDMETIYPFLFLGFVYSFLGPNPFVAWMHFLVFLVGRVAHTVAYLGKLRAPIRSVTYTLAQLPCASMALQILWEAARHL
Experimental: Microsomal membranes of interleukin-1β-treated A549 cells were prepared as source of mPGES-1[67]. […] Ice-cold homogenization buffer (0.1 M potassium phosphate buffer pH 7.4, 1 mM phenylmethanesulphonyl fluoride, 60 µg/ml soybean trypsin inhibitor, 1 µg/ml leupeptin, 2.5 mM glutathione, and 250 mM sucrose) was added, and cells were incubated for 15 min on ice prior to sonication (3 × 20 s, 4 °C). […] Microsomes were suspended in homogenization buffer and diluted in potassium phosphate buffer (0.1 M, pH 7.4) containing 2.5 mM glutathione. Membranes (2.5–5 µg total protein) were pre-incubated with LCMs for 15 min at 4 °C, and PGE2 formation was initiated by addition of PGH2 (20 µM, final concentration). The reaction was terminated after 1 min by addition of one volume stop solution (40 mM FeCl2, 80 mM citric acid and 1 nmol of the internal standard 11β-PGE2, Cayman Chemicals).

[2] = tested on: peripheral blood mononuclear cells; assay: Cell viability of PBMC (MTT assay); format: cell-based, human; conditions: at 1 and 10 µM (one entry for both); 24 h; n.i. no inhibition
Experimental: The formazan product was solubilized with SDS (10% in 20 mM HCl), and absorbance was measured at 570 nm using a Multiskan Spectrum microplate reader (Thermo Fisher Scientific).

[3] = tested on: zymosan-induced murine peritonitis; assay: Zymosan-induced peritonitis in mice; format: in vivo, mouse; conditions: 10 mg/kg i.p.
Experimental: (§1) Mice were killed by inhalation of CO2 after another 30 min for determination of LTC4 levels and vascular permeability and after 4 h for the analysis of LTB4 levels, lipidomic profiles and immune cell infiltration. Cell infiltration and lipid mediator profiles during resolution were studied after 18 h. Peritoneal exudates were collected and cells counted after vital trypan blue staining. LTC4, LTB4, and PGE2 were analyzed in the exudate by enzyme immunoassays (Enzo Life Sciences, Lörrach, Germany) according to manufacturer's instructions. To assess vascular permeability, Evans blue dye (40 mg/kg in saline, 0.3 ml; Sigma-Aldrich) was injected into the tail vain immediately before the induction of peritonitis. Exudates were centrifuged (3000 × g, 5 min) and the absorbance of the supernatants was measured at 610 nm using a Beckman Coulter DU730 spectrophotometer. To investigate the effect of α-T (1a) on the accumulation of α-T-13'-COOH (4a) in infiltrated leukocytes after peritonitis has been established, vehicle or α-[…].) were given 1 h before and/or 4 h post zymosan injection, and mice were killed after another 1.5 h. Leukocytes were obtained from peritoneal exudates by centrifugation (1200 × g, 10 min, 4 °C).

[4] = LCM concentrations in plasma and peritoneal exudate of mice with peritonitis (UPLC-MS/MS); format: in vivo; conditions: CD-1, mouse; for concentration at 240 min: ip, 10 mg/kg i.p., 240 min post zymosan
Experimental: as §1, with “°C). Lipids, including LCMs, were extracted from PMNL, murine peritoneal exudates or murine plasma by successive addition of PBS pH 7.4, methanol, chloroform and saline (final ratio: 14:34:35:17)[68]. […] Multiple reaction monitoring was used to detect LCMs in the negative ion mode. The precursor-to-product ion transitions were selected according to Jiang et al.[69] and are listed in Supplementary Table 3. The ion spray voltage was set to -4500 V, the heated capillary temperature to 450 °C, the sheath gas pressure to 50 psi, the auxiliary gas pressure to 40 psi, and the declustering potential to 80 eV (for Ts) or 110 eV (for TEs). Collision energies and lower limits of quantitation are listed in Supplementary Table 3.” for “°C).”

[5] = target: T2, COX-1 (Homo sapiens, UniProt P23219); assay: COX-1 activity (12-HHT formation) in washed platelets; format: cell-based
T2 construct: Freshly isolated human platelets (1 × 10^8) were pre-incubated with LCMs; endogenous in cells; host or cells: washed human platelets
Experimental: Freshly isolated human platelets (1 × 10^8) were pre-incubated with LCMs for 5 min at room temperature. Formation of COX-1-derived 12-HHT was initiated by addition of exogenous AA (5 µM).

T2 sequence (P23219 24-599): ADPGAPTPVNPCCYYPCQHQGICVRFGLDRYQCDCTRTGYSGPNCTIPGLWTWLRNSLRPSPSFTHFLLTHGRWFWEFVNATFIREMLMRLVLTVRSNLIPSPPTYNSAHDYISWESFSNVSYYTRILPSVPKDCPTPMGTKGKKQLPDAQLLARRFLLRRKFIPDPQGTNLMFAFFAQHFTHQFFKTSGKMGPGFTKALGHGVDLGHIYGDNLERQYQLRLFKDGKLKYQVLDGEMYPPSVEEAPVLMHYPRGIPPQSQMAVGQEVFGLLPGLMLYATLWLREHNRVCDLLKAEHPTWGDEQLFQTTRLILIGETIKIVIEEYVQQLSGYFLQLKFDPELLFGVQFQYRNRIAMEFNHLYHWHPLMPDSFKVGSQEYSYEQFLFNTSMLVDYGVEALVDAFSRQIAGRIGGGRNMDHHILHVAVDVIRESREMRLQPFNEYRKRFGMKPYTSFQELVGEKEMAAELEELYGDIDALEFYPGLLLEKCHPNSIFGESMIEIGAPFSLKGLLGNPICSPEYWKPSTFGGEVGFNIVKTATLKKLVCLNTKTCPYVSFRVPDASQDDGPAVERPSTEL

Cc1c(C)c2c(c(C)c1O)CC[C@@](C)(CCCC(C)CCCC(C)CCCC(C)C(=O)O)O2 (stereo partly drawn) [4a, 13-((2R)-6-hydroxy-2,5,7,8-tetramethylchroman-2-yl)-2,6,10-trimethyltridecanoic acid]
IC50 [1]: 8.8 µM | Cell viability/peripheral blood mononuclear cells, residual viability [2]: n.i. | vascular permeability ([3]; 30 min post zymosan): reduced | LTC4 levels in the exudate ([3]; 30 min post zymosan, ELISA): strongly decreased | immune cell infiltration into the peritoneal cavity ([3]; 4 h post zymosan): impaired | LTB4 levels in the exudate ([3]; 4 h post zymosan, ELISA): impaired | circulating resolvin E3 in plasma ([3]; 18 h post zymosan): strongly increased | suppressive effect on cell infiltration at the resolution phase ([3]; 18 h post zymosan): vanished | concentration at 30 min ([4]; peritoneal exudate, endogenous, 30 min post zymosan injection, read-out: α-T-13′-COOH (4a) concentration in peritoneal exudate): ≤ 200 nM | concentration at 240 min ([4]; peritoneal exudate, read-out: α-T-13′-COOH (4a) concentration in peritoneal exudate): 3900 nM | concentration at 240 min ([4]; plasma, read-out: α-T-13′-COOH (4a) concentration in plasma): 1400 nM | IC50 [5]: 6.9 µM
